Laboratory results published in PubChem BioAssay AID602326 (NMMLSC, 2012).
Activity calls are given as the source filed them. No rule for the calls is given here.

Target: Lethal factor (Bacillus anthracis) (UniProt P15917)
Assay: Lethal factor protease inhibitors, microsphere cleavage assay, confirmatory dose response, cherry picks (AID 602326)
Settings: multiplex microsphere protease substrate cleavage assay

Sequence of Lethal factor (Bacillus anthracis) (P15917 whole entry, looked up): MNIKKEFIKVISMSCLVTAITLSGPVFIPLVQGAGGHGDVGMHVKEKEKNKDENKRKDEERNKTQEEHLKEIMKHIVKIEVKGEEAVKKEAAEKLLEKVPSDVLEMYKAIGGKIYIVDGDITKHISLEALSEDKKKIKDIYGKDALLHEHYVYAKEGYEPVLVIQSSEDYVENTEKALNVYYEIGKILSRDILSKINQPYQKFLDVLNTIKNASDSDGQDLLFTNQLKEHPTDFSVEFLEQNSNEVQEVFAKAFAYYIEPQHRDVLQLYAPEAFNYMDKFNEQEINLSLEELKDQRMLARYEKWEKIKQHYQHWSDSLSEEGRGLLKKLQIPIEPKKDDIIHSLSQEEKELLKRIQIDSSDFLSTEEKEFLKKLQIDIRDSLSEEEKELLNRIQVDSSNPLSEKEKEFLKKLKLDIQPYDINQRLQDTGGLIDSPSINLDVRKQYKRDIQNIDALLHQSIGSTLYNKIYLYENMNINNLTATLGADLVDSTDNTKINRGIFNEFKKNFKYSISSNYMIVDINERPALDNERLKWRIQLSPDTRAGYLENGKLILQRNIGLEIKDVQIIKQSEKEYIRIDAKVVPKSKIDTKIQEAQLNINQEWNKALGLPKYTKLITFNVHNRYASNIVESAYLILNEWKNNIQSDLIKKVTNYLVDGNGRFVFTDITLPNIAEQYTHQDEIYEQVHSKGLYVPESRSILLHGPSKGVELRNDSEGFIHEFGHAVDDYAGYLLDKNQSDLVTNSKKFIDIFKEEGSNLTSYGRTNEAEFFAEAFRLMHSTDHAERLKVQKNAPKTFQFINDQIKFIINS

SMILES	EC50
Oc1[nH]c(N=C2N=c3ccccc3=N2)c2ccccc12	> 20 µM (inactive)
O=c1c(/C=C(\O)c2ccccc2)nc2ccccc2n1-c1ccccc1	> 20 µM (inactive)
